Results reported in EP1614683B1, “Indazole compounds and pharmaceutical compositions for inhibiting protein kinases, and methods for their use” (priority 1999, dated 2001).
Read-outs that look alike come from different tables or passages of the source.

Columns and labels:
[1] = target: human FGF-R1 (Homo sapiens, UniProt P11362, C488A/C584S/L457V); assay: FGF-R spectrophotometric assay; format: biochemical; settings: Table 1; for inhibition at 1 µM: compound concentration 1 µM, read-out: FGF-P* (% inhibition)
Method: The spectrophotometric assay was carried out as described above for VEGF-R2, except for the following changes in concentration: FGF-R = 50 nM, ATP = 2 mM, and poly(E4Y1) =15 mM.

[2] = target: LCK tyrosine kinase (Homo sapiens, UniProt P06239, C224D/P223M); assay: LCK spectrophotometric assay; format: biochemical; settings: read-out: Lck-P* (% inhibition)
Method: The spectrophotometric assay was carried out as described above for VEGF-R2, except for the following changes in concentration: LCK = 60 nM, MgCl2 = 0 mM, poly(E4Y1) = 20 mM.

[3] = target: T1, human CHK1 (FL-CHK1) (Homo sapiens, UniProt O14757); assay: CHK1 coupled spectrophotometric assay; format: biochemical; settings: Table 1; read-out: CHK -1* (Ki)
T1 construct: C-terminally His-tagged full-length human CHK1 (FL-CHK1) was expressed using the baculovirus/insect cell system; made in house; host or cells: baculovirus/insect cell system
T1 sequence (O14757 1-476): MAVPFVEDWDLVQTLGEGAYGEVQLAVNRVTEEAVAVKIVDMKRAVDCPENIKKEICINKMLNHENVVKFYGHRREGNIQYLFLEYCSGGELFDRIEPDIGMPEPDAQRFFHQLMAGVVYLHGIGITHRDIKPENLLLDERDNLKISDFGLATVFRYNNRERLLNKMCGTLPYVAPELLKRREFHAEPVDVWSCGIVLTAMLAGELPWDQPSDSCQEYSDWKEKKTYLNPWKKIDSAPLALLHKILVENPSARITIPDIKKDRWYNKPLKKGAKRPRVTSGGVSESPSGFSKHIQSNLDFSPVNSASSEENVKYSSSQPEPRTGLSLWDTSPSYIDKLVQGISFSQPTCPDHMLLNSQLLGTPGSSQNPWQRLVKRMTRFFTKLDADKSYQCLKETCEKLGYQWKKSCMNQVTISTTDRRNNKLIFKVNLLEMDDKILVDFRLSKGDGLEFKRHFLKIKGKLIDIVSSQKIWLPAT
Text: CHK1 Construct for Assay: C-terminally His-tagged full-length human CHK1 (FL-CHK1) was expressed using the baculovirus/insect cell system. […] The protein was purified by conventional chromatographic techniques.
The production of ADP from ATP that accompanies phosphoryl transfer to the synthetic substrate peptide Syntide-2 ([…]) was coupled to oxidation of NADH using phosphoenolpyruvate (PEP) through the actions of pyruvate kinase (PK) and lactic dehydrogenase (LDH). The oxidation of NADH was monitored by following the decrease of absorbance at 340 nm (∈340 = 6.22 cm^-1 mM^-1) using a HP8452 spectrophotometer. […] Assays were initiated with 10 nM of FL-CHK1. Ki values were determined by measuring initial enzyme activity in the presence of varying concentrations of test compounds. The data were analyzed using Enzyme Kinetic and Kaleidagraph software.

[4] = target: T2, phosphorylated Tie-2 (aa 775-1122) (Homo sapiens, UniProt Q02763); assay: TIE-2 spectrophotometric assay; format: biochemical; settings: for inhibition at 1 µM: Table 5, bold values spectrophotometric assay, non-bolded DELFIA assay (bold not visible here), read-out: % Inhibition @ 1 µM Tie2-P
T2 construct: 4 to 12 nM phosphorylated Tie-2 (aa 775-1122); made in house; host or cells: insect cells
Outline: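 Human phosphorylated Tie-2 kinase activity was measured spectrophotometrically by coupling ADP formation, from phosphoryl transfer to poly(Glu4 Tyr), to NADH oxidation via pyruvate kinase and lactate dehydrogenase. Absorbance loss at 340 nm was read on a Beckman DU650. Reactions held 1 mM phosphoenolpyruvate, 0.24 mM NADH, 40 mM MgCl2, 5 mM DTT, 0.5 mM ATP, and 15 units/mL each of PK and LDH in 100 mM HEPES, pH 7.5.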

[5] = tested on: human umbilical vein endothelial cells (HUVEC); assay: HUVEC proliferation assay (VEGF-stimulated, MTT); format: cell-based; settings: Homo sapiens, HUVEC
[6] = tested on: lung cancer cells (line MV522); assay: Cancer cell proliferation (MV522) assay; format: cell-based
Method: The protocol for assessing cellular proliferation in cancer cells is similar to that used for assessments in HUVEC cells. Two thousand lung cancer cells (line MV522, acquired from American Tissue Cultural Collection) were seeded in growth media (RPMI1640 medium supplemented with 2 mM glutamine and 10% FBS). Cells are allowed to attach for 1 day prior to addition of test agents and /or vehicles. Cells are treated simultaneously with the same test agents used in the HUVEC assay. Cellular proliferation is quantified by MTT dye reduction assay 72 hours after exposure to test agents. The total length of the assay is 4 days vs. 5 for HUVEC cells because MV522 cells are not exposed to starvation medium.

[7] = tested on: VEGF dependent retinal neovascularization; assay: Neonatal rat model of retinopathy of prematurity; format: in vivo; settings: Model ROP, intravitreal
Method: A second model of VEGF dependent retinal neovascularization was employed to evaluate the activities of this series of compounds. […] The animals are exposed for 24 hours to a concentration of 50% oxygen followed by 24 hours at a concentration of 10% oxygen. This alternating cycle of hyperoxia followed by hypoxia is repeated 7 times after which the animals are removed to room air (P14). Compounds are administered via intravitreal injection upon removal to room air and the animals are sacrificed 6 days later (P20). The isolated retinas are then isolated, stained mounted and analyzed as detail above in the development model. The effectiveness was also graded as is described for the development model.

[8] = in vivo; settings: mouse, plasma, po, pH 2.3; for Cmax: 50 mg/kg
[9] = target: CDK4/Cyclin D3 complex (Homo sapiens, UniProt P11802); assay: biochemical; settings: read-out: CDK4 * (% inhibition)
[10] = in vitro; format: in vitro ADME, human; settings: human liver microsomes, 5 µM test compound, 37 °C, 2 h; for remaining at 2 h, 5 µM: read-out: % remain (HLM, 2 h)
Outline: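 HLM diluted to 5 mg/mL in 100 mM KPO4, preincubated 10 min at 37 °C with NADPH-regenerating system. Compound (5 µM final) incubated at 37 °C in triplicate, sampled at 0 and 2 h into ice-cold acetonitrile, then LC-MS analysis.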

[11] = tested on: VEGF dependent retinal vascular development; assay: In vivo assay of retinal vascular development in neonatal rats; parameters: species or system rat
Outline: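 Neonatal rats given compound by intravitreal injection, vehicle usually 50% PEG 400/50% 300 mM sucrose, with vehicle in contralateral eye. Retinas removed six days later, ADPase-stained and flat-mounted; stained vessel area quantified by imaging and expressed as percent regression versus vehicle eye.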

[12] = PO, 25 mg/kg, vehicle PEG400:H2O pH 2.3 30:70
[13] = Table 1, compound concentration 1 µM
[14] = MV522, Table 1, read-out: MV522 IC50
[15] = 10 mg/ml, vehicle PEG/water 70:30
[16] = Table 1, + albumin, read-out: HUVEC + albumin IC50
[17] = 5 mg/ml, vehicle PEG/water 70:30

Sequence of CDK4/Cyclin D3 complex (P11802 whole entry): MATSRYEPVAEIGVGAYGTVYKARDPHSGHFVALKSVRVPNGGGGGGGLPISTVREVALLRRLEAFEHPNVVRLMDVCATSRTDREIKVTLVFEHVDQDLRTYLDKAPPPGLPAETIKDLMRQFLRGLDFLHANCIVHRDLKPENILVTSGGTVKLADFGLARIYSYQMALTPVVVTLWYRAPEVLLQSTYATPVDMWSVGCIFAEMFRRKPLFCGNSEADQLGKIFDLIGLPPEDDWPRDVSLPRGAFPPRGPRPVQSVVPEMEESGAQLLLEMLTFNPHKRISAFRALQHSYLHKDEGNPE
Sequence of CDK4/Cyclin D3 complex (P30281 whole entry partner): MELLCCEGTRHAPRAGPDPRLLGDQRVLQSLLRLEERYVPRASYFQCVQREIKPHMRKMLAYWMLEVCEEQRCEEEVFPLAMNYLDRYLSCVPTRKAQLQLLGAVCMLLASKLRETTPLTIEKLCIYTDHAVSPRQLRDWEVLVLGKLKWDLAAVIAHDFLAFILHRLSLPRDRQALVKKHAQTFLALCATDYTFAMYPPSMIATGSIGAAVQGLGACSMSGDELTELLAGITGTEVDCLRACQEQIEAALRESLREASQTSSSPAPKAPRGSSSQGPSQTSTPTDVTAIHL
Sequence of LCK tyrosine kinase (P06239 223-509 P223M/C224D): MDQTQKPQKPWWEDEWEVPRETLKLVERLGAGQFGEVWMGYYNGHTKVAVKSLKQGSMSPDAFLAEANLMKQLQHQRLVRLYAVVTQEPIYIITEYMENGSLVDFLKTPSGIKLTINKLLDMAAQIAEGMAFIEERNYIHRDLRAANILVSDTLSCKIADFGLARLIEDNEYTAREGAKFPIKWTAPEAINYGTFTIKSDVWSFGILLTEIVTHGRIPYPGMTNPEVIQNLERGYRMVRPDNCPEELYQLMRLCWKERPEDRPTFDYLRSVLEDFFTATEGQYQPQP
Sequence of human FGF-R1 (P11362 456-766 L457V/C488A/C584S): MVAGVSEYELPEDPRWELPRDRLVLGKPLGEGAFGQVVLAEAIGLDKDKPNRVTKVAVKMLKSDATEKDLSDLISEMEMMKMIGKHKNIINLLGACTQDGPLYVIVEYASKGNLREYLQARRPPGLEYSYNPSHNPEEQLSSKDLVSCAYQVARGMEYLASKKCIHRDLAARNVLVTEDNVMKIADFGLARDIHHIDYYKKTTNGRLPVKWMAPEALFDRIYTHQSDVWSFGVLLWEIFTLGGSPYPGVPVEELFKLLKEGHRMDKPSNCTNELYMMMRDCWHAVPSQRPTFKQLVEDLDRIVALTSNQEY
T2 sequence (Q02763 775-1122): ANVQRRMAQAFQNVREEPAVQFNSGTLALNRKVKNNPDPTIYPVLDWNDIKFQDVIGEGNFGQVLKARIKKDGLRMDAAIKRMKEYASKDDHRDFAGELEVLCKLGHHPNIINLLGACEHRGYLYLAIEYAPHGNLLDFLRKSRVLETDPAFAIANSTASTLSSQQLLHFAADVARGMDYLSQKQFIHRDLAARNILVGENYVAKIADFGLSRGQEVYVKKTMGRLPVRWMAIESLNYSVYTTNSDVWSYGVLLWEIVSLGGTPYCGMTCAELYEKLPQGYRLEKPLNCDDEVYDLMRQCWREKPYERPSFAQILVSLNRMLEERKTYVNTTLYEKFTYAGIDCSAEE

| Compound | inhibition at 1 µM [2, 13] [%] | inhibition at 1 µM [4] [%] | IC50 [6, 14] [µM] | Initial Evaluation [7, 15] | IC50 [5, 16] [nM] | IC50 ([5]; Table 1, read-out: HUVEC IC50) [nM] | inhibition at 1 µM [1] [%] | further results |
| --- | --- | --- | --- | --- | --- | --- | --- | --- |
| COc1cc(-c2ccc3c(-c4cc5ccccc5[nH]4)n[nH]c3c2)ccc1O [2(d), 3-(1H-Indol-2-yl)-6-(3-methoxy-4-hydroxy-phenyl)-1H-indazole] |  |  |  |  |  |  |  | Ki ([1]; read-out: FGF-P* (Ki)): 68 nM; inhibition at 1 µM [2]: 43%; Ki [3]: 91 nM; inhibition at 10 µM ([4]; read-out: % Inhibition Tie2-P, compound tested at 10 µM): 90%; IC50 ([5]; read-out: HUVEC IC50 (nM)): 450 nM; IC50 ([6]; MV522, read-out: MV522 IC50 (µM)): 0.18 µM |
| O=C(Nc1cccc(Oc2ccc3c(/C=C/c4ccccc4)n[nH]c3c2)c1)c1ccccc1 [4(a), N-[3-(3-Styryl-1H-indazol-6-yloxy)-phenyl]-benzamide] | 68 | 69 | 6.3 | ++ (two pluses being judged to be approximately 25-75 % regression) |  |  |  | Cmax [8]: 50 ng/mL; inhibition at 1 µM [9]: 19% |
| Cc1cccc(C(=O)Nc2cccc(Oc3ccc4c(/C=C/c5ccccc5)n[nH]c4c3)c2)c1 [5(b), 3-Methyl-N-[3-(3-styryl-1h-indazol-6-yloxy)-phenyl]-benzamide] | 78 |  | 8.5 |  | 33 | 3.7 |  | % Inhibition [7, 17]: 45%; Initial Evaluation [7, 17]: ++ (two pluses being judged to be approximately 25-75 % regression) |
| O=C(Nc1cccc(Oc2ccc3c(/C=C/c4ccc(Cl)cc4)n[nH]c3c2)c1)c1ccccc1 [6(a), N-(3-[3-[2-(4-Chloro-phenyl)-vinyl]-1H-indazol-6-yloxy}-phenyl)-benzamide] | 33 |  | 3.5 |  | 50 | 8.5 | 67 | remaining at 2 h, 5 µM [10]: 69%; Initial Evaluation ([7]; 5 mg/ml, vehicle PEG/water): ++ (two pluses being judged to be approximately 25-75 % regression) |
| Cc1cccc(C(=O)Nc2cccc(Oc3ccc4c(-c5cc6ccccc6[nH]5)n[nH]c4c3)c2)c1 [6(b), N-{3-[3-(2-Indolyl)-1H-indazol-6-yloxy]-phenyl}-3-methyl benzamide] | 81 |  | 4 | ++ (two pluses being judged to be approximately 25-75 % regression) | 60 | 8 | 95 |  |
| CN(c1cccc(NC(=O)c2ccccc2)c1)c1ccc2c(/C=C/c3ccc4c(c3)OCO4)n[nH]c2c1 [16(a), N-(3-{[3-(2-Benzo[1,3]dioxol-5-yl-vinyl)-1H-indazol-6-yl]-methyl-amino}-phenyl)-benzamide] | 28 | 10 | 8 |  | 112 |  | 65 | remaining at 2 h, 5 µM [10]: 7% |
| O=C(Nc1cccc(C(=O)c2ccc3c(/C=C/c4ccccc4)n[nH]c3c2)c1)c1ccccc1 [19(b), N-[3-(3-Styryl-1H-indazole-6-carbonyl)-phenyl]-benzamide] | 58 |  | 4.3 | ++ (two pluses being judged to be approximately 25-75 % regression) | 27 | 2.9 | 60 | remaining at 2 h, 5 µM [10]: 137%; Cmax [8]: 30 ng/mL; inhibition at 1 µM [9]: 11% |
| C=C(c1cccc(NC(C)=O)c1)c1ccc2c(/C=C/c3ccccc3)n[nH]c2c1 [Example 23, 6-(1-(3-Acetamido-phenyl)-vinyl)-3-styryl-1H-indazole] | 12 | 5 | 5.7 |  | 106 | 9.5 | 14 | inhibition at 1 µM [9]: 17% |
| O=C(Nc1cccc(Oc2ccc3c(/C=C/c4cccs4)n[nH]c3c2)c1)c1ccccc1 [Reference Example 30(a), 6-[3-benzamidophenoxy]-3-E-[2-(thien-2-yl)thenyl]-1H-indazole] | 45 | 19 | 5.7 | ++ (two pluses being judged to be approximately 25-75 % regression) | 22 | 1.6 | 94 | % remain (HLM, 2 h) [10]: 64%; % Inhibition [7, 15]: 48% |
| Cn1ccnc1C(=O)Nc1cccc(Oc2ccc3c(/C=C/c4ccccn4)n[nH]c3c2)c1 [Reference Example 31(e), 6-[3-((1-Methylimidazol-2-yl)carboxamido)phenoxy]-3-E-[2-(pyridin-2-yl)ethenyl]-1H-indazole] | 43 |  | 8.6 |  | 6.2 |  | 62 | % remain (HLM, 2 h) [10]: 49%; % Inhibition ([11]; Model P8, intravitreal, 5 mg/ml, vehicle PEG/water 50:50): 24%; T1/2 [12]: 13.1 h; AUC ([8]; 25 mg/kg): > 30300 ng·h/mL |
| O=C(Nc1cccc(C(=O)c2ccc3c(-c4nc5ccccc5[nH]4)n[nH]c3c2)c1)c1ccccc1 [Reference Example 42(b), 6-(3-Benzamidobenzoyl)-3-(1H-benzoimidazol-2-yl)-1H-indazole] | 75 |  | 2.1 |  | 29 | 2.1 | 27 | % remain (HLM, 2 h) [10]: 81%; % Inhibition ([11]; Model P9, intravitreal, 10 mg/ml, vehicle PEG/water 70:30): 40% |
